Series [1] in a line: Cytotoxicity against African green monkey Vero cells assessed as cell viability measured after 24 hrs incubation by MTT assay. The class given is toxicity, cell-based. The settings on record: chlorocebus sabaeus.
Series [2] relates to Human alphaherpesvirus 1. Put plainly: In vivo antiviral activity against HSV1 infected in BALB/c mouse right ear by scratch assessed as reduction in viral titer in ear tissue homogenate at 10 to 20 mg/kg, applied topically measured for 5 to 9 days post-infection. In kind it is functional, organism-based. The settings on record: dose 10-20 mg/kg, time 5-9 day.
Series [3] has as its system Human alphaherpesvirus 1. Description: Antiviral activity against ACV-resistant HSV1 153 infected in African green monkey Vero cells assessed as reduction of virus-induced cytopathic effect measured after 48 hrs of incubation. The class given is functional, organism-based. The following applies: Human alphaherpesvirus 1, 153, Vero. On the technique in general: Damage to the host cells serves as the signal in cytopathic effect assays.

The subject of series [4] is Human alphaherpesvirus 1. Put plainly: Antiviral activity against HSV1 expressing GFP infected in African green monkey Vero cells assessed as fold reduction in viral titer green fluorescence protein expression measured after 48 hrs post-infection by immunofluorescence based fluorescence microscopy. In kind it is functional.
Series [5] is described as follows: Selectivity index, ratio of CC50 for Cytotoxicity against african green monkey Vero cells to IC50 for Antiviral activity against HSV1 infected in African green monkey Vero cells. In kind it is toxicity, cell-based. The following applies: read-out: Selectivity Index.
Series [6] deals with Human alphaherpesvirus 1. Put plainly: Antiviral activity against HSV1 expressing GFP infected in African green monkey Vero cells assessed as fold reduction in viral titer green fluorescence protein expression at 2 uM measured after 48 hrs post-infection by immunofluorescence based fluorescence microscopy. In kind it is functional.
In series [7] the test system is Human alphaherpesvirus 1. Description: Antiviral activity against HSV1 infected in African green monkey Vero cells assessed as reduction of virus-induced cytopathic effect measured after 48 hrs of incubation. In kind it is functional, organism-based. The settings on record: Human alphaherpesvirus 1, Vero.
Series [8] deals with Human alphaherpesvirus 1. Put plainly: Antiviral activity against HSV1 infected in African green monkey Vero cells assessed as inhibition of transcription by measuring viral gene level at 0.25 to 2 uM by RT-PCR analysis relative to control. The settings on record: dose 0.25-2 µM. In kind it is functional, organism-based.
The test system of series [9] is Vero. Put plainly: Suppression of phosphorylation of RNA polymerase at serine 2 C-terminal domain in HSV1 infected African green monkey Vero cells at 0.25 to 2 uM measured after 12 hrs incubation by Western blot analysis. In kind it is cell-based. The following applies: Human alphaherpesvirus 1, dose 0.25-2 µM. For orientation: A western blot detects proteins with antibodies after separation by electrophoresis.

The test system of series [10] is Human alphaherpesvirus 1. Description: Antiviral activity against HSV1 expressing GFP infected in African green monkey Vero cells assessed as reduction in green fluorescence protein expression at 1 uM measured after 24 hrs post-infection by immunofluorescence based fluorescence microscopy. In kind it is functional, organism-based.
The subject of series [11] is Vero. Put plainly: Suppression of phosphorylation of RNA polymerase at serine 5 C-terminal domain in HSV1 infected African green monkey Vero cells measured after 12 hrs incubation by Western blot analysis. The class given is cell-based. The settings on record: Human alphaherpesvirus 1, dose 0.25-2 µM.
The nature of series [12]: Toxicity in BALB/c mouse assessed as toxic side effects at 10 to 20 mg/kg, applied topically measured for 5 to 9 days post-infection. The following applies: in vivo, topical_or_ocular, dose lower 10 mg/kg, time lower 5 day, dose upper 20 mg/kg, time upper 9 day. In kind it is organism-based.
For series [13], the system named is Human alphaherpesvirus 1. Description: In vivo antiviral activity against HSV1 infected in BALB/c mouse right ear by scratch assessed as reduction in ear thickness at 10 to 20 mg/kg, applied topically measured for 5 to 9 days post-infection. The following applies: dose 10-20 mg/kg, time 5-9 day. In kind it is functional, organism-based.
In series [14] the test system is Human alphaherpesvirus 1. Description: In vivo antiviral activity against HSV1 infected in BALB/c mouse right ear by scratch assessed as reduction in skin lesions at 10 to 20 mg/kg, applied topically measured for 5 to 9 days post-infection. The class given is functional, organism-based. The following applies: dose 10-20 mg/kg, time 5-9 day.
Series [15] concerns Vero. Description: Inhibition of CDK7/Cyclin T1 in African green monkey Vero cells infected with HSV1 assessed as catalytic hydrolysis of ATP measured after 12 hrs by Western blot analysis. In kind it is cell-based. The settings on record: Chlorocebus aethiops.
The test system of series [16] is Human alphaherpesvirus 1. Description: In vivo antiviral activity against HSV1 infected in BALB/c mouse right ear by scratch assessed as reduction in gD glycoprotein level at 10 to 20 mg/kg, applied topically measured for 5 to 9 days post-infection. The following applies: dose 10-20 mg/kg, time 5-9 day. The class given is functional, organism-based.
For series [17], the system named is Human alphaherpesvirus 1. Description: In vivo antiviral activity against HSV1 infected in BALB/c mouse right ear by scratch assessed as increase in body weight at 10 to 20 mg/kg, applied topically measured for 5 to 9 days post-infection relative to control. The class given is functional, organism-based. The settings on record: dose 10-20 mg/kg, time 5-9 day.

In series [18] the test system is Human alphaherpesvirus 1. Description: Antiviral activity against HSV1 infected in African green monkey Vero cells assessed as reduction of virus yield at 2 uM treated for 0 to 14 hrs of post-infection. The following applies: time 0-14 hrs. In kind it is functional, organism-based.
Series [19] deals with Human alphaherpesvirus 2. Description: Antiviral activity against HSV2 infected in African green monkey Vero cells assessed as reduction of virus-induced cytopathic effect measured after 48 hrs of incubation. The class given is functional, organism-based. The following applies: Human alphaherpesvirus 2, Vero.
Series [20] relates to Human alphaherpesvirus 1. Put plainly: Antiviral activity against ACV-resistant HSV1 Blue infected in African green monkey Vero cells assessed as reduction of virus-induced cytopathic effect measured after 48 hrs of incubation. The class given is functional, organism-based. The settings on record: Human alphaherpesvirus 1, Blue.
The test system of series [21] is Vero. Description: Inhibition of CDK9/Cyclin T1 in African green monkey Vero cells infected with HSV1 assessed as catalytic hydrolysis of ATP measured after 12 hrs by Western blot analysis. The class given is cell-based. The following applies: Chlorocebus aethiops.
Series [22] has as its system Human alphaherpesvirus 1. Put plainly: Antiviral activity against HSV1 expressing GFP infected in African green monkey Vero cells assessed as suppression of infection at 50 times of IC50 concentration measured after 48 hrs post-infection. In kind it is functional, organism-based.
For series [23], the system named is Human alphaherpesvirus 1. Put plainly: Antiviral activity against HSV1 infected in African green monkey Vero cells assessed as inhibition of virus replication at 2 uM treated 8 hrs of post-infection. In kind it is functional, organism-based.

The source made the active and inactive calls. The rule behind the calls is not given here. Where only a bound is given, the exact number is not on record here.

Broadly, the CC50 is the concentration that lowers cell viability or growth by half. For orientation: IC50 means the concentration that gives 50% inhibition. As for `CC(C)CC(=O)c1c(O)cc2c(c1O)C(CC(C)C)C1=C(O2)C(C)(C)C(=O)C(C)(C)C1=O` (racemic), the CC50 at 24 h in [1] turned out to be 7 µM. For the same compound, the result in [2], in series [6], in [8], in series [10], in [13] and in [14] was Active. In addition, the result in [16], in series [17] and in series [18] was Active. Moreover, the half-maximal inhibitory concentration (IC50) in [3] turned out to be 0.3 µM; in series [7], 0.39 µM; in series [19], 0.35 µM; in series [20], 0.3 µM. The “fold change (FC)” value in [4] amounted to 3943. Further, the selectivity ratio in [5] amounted to 17.9. In addition, the Activity entry in series [9] was “Active; Compound Showed Only Slight Inhibition”; in series [11] it was “Dose-dependent-effect”; in series [12], “Non-toxic”. For the same compound, the result in series [15] was inactive.
`CC(C)CC(=O)c1c(O)cc2c(c1O)[C@@H](CC(C)C)C1=C(O2)C(C)(C)[C@@H](O)C(C)(C)C1=O`: in series [1], the CC50 at 24 h came out at 10 µM. Also, in [5], the selectivity ratio is less than 6.67. Also, the half-maximal inhibitory concentration (IC50) in [7] is 3.75 µM. Moreover, the outcome in [18] was Active.
Consider `CC(C)CC(=O)c1c(O)c(Cl)c2c(c1O)C(CC(C)C)C1=C(O2)C(C)(C)C(=O)C(C)(C)C1=O` (centres undefined), for which, in [1], the CC50 at 24 h worked out at 14 µM. Also, the figures for the IC50 in series [3], in series [7] and in [20] were 0.4 µM, 0.4 µM and 0.3 µM, respectively. For the same compound, the Activity result in [4] was “Dose-dependent-effect”. Also, the selectivity ratio in series [5] is 35. Moreover, the “fold change (FC)” value in [6] turned out to be 3549.
Take `CCC(=O)c1c(O)cc2c(c1O)C(CC(C)C)C1=C(O2)C(C)(C)C(=O)C(C)(C)C1=O` (centres undefined): the CC50 at 24 h in series [1] is 7 µM. Further, the half-inhibitory concentration (IC50) in series [3] was 1.3 µM; in series [7], 0.7 µM; in series [20] it was 1.4 µM. In addition, the selectivity ratio in series [5] came to 13.9.
On to `CC(C)CC1C2=C(Oc3cc(O)c(C(=O)C4CCCC4)c(O)c31)C(C)(C)C(=O)C(C)(C)C2=O` (centres undefined), for which, in series [1], the 50% cytotoxic concentration (CC50) at 24 h was 9 µM. The half-maximal inhibitory concentration (IC50) in series [3] came out at 0.3 µM; in series [7], 0.58 µM; in series [20] it was 0.3 µM. For the same compound, the selectivity ratio in [5] is 15.5.
On to `CC(C)CC(=O)c1c(O)cc2c(c1O)C(Cc1ccccc1)C1=C(O2)C(C)(C)C(=O)C(C)(C)C1=O` (centres undefined), for which the CC50 at 24 h in series [1] was 13 µM. Further, the IC50 in [3], in series [7] and in series [20] was 0.6 µM each time. Moreover, the selectivity ratio in series [5] was 21.7.
With `CC(C)CC1C2=C(Oc3cc(O)c(C(=O)CCc4ccccc4)c(O)c31)C(C)(C)C(=O)C(C)(C)C2=O` (centres undefined), in [1], the half-maximal cytotoxic concentration (CC50) at 24 h turned out to be 7 µM. Moreover, the values for the IC50 in [3], in series [7] and in [20] were 0.4 µM, 0.45 µM and 0.2 µM, respectively. For the same compound, in series [5], the selectivity ratio was 15.6.
For the compound `CC(C)CC1C2=C(Oc3cc(O)c(C(=O)C4CCC4)c(O)c31)C(C)(C)C(=O)C(C)(C)C2=O` (centres undefined), the CC50 at 24 h in series [1] was 13 µM. Further, the figures for the 50% inhibitory concentration (IC50) in series [3], in [7] and in series [20] were 0.3 µM, 0.5 µM and 0.25 µM, respectively. Moreover, the Activity entry in [4] was “Dose-dependent-effect”. In series [5], the selectivity ratio came to 26. Besides, in series [6], the “fold change (FC)” value came to 1867. Besides, in [18], the result was Active.
In the case of `CC(=O)Oc1cc2c(c(OC(C)=O)c1C(=O)CC(C)C)C(CC(C)C)C1=C(O2)C(C)(C)C(=O)C(C)(C)C1=O` (centres undefined), the 50% cytotoxic concentration (CC50) at 24 h in [1] is 7 µM. Moreover, the 50% inhibitory concentration (IC50) was determined as 0.4 µM in series [3], 0.5 µM in [7] and 0.3 µM in series [20]. Also, the selectivity ratio in series [5] was found to be 14.
On to `CC(C)(C)c1cnc(CSc2cnc(NC(=O)C3CCNCC3)s2)o1`, for which the outcome in [21], in series [9] and in series [15] was Active.
Regarding `Nc1nc2c(ncn2COCCO)c(=O)[nH]1` [ACYCLOVIR], the CC50 at 24 h in series [1] was greater than 100 µM. In addition, the figures for the IC50 in [3], in [7] and in series [20] were greater than 100 µM, 1.2 µM and greater than 100 µM, respectively. Further, the selectivity ratio in [5] is greater than 80. Further, the result in series [22] was inactive. For the same compound, the outcome in series [23] was Active.
For the compound `CCCCC(=O)c1c(O)cc2c(c1O)C(CC(C)C)C1=C(O2)C(C)(C)C(=O)C(C)(C)C1=O` (centres undefined), the CC50 at 24 h in series [1] is 8 µM. Also, the 50% inhibitory concentration (IC50) in series [3] was 1.2 µM; in series [7], 0.5 µM; in series [20], 1.2 µM. Further, the selectivity ratio in series [5] was found to be 20.
Regarding `CCC1C2=C(Oc3cc(O)c(C(=O)CC(C)C)c(O)c31)C(C)(C)C(=O)C(C)(C)C2=O` (centres undefined), the half-maximal cytotoxic concentration (CC50) at 24 h in series [1] was 6 µM. Besides, the figures for the 50% inhibitory concentration (IC50) in series [3], in series [7] and in series [20] were 0.5 µM, 0.8 µM and 0.6 µM, respectively. In addition, in [5], the selectivity ratio was found to be 7.5.
For `CC(C)CC1C2=C(Oc3cc(O)c(C(=O)CCCCCl)c(O)c31)C(C)(C)C(=O)C(C)(C)C2=O` (centres undefined), in that order: 8 µM, 0.5 µM, 0.45 µM, 0.6 µM and 16.
For `CC(C)CC1C2=C(Oc3cc(O)c(C(=O)C(C)C)c(O)c31)C(C)(C)C(=O)C(C)(C)C2=O` (centres undefined), in that order: 7 µM, 0.4 µM, 0.63 µM, 0.3 µM and 17.8.

Values taken from ChEMBL document CHEMBL6182947, “Discovery of Phloroglucinol Derivatives as a New Type of Nonnucleoside Inhibitors with Anti-herpes Simplex Virus Type 1 Activity” (J Med Chem, 2025).
